Where two headings read alike, the source gives them in different places.
How the values were obtained:
Assay type in all cases: physicochemical
[1] = Solubility of TRIMEA and DIMEB and complex formation between the two hosts in absence of a guest
Experimental: TRIMEA and DIMEB dissolve in water more than 33 g per 100 ml of water. The solubilities of both these compounds in water can be decreased by the addition of salts or by an increase of temperature. Thus, in aqueous solution of sodium sulfate (1 M), TRIMEA dissolved to the saturation concentration just of 0.4 mg/ml and DIMEB to 3.4 mg/ml. […] If a 1:1 complex between TRIMEA and DIMEB is assumed to form, the association constant of 700 [1/M] can be estimated for that complex, which is of the same order of magnitude as association constants of many complexes formed of guests and cyclodextrins.

insulin = insulin (Homo sapiens, UniProt P01308); assay: Stabilization and solubilization of insulin by highly methylated cyclodextrins; conditions: cyclodextrins at 2 or 4% in phosphate buffered solution, insulin 1 mg/ml, final pH less than 6
[2] = Preparation and stabilization of colloidal compositions of calcium fluoride; conditions: alone or in combination with TRIMEA; precipitation from calcium chloride and sodium fluoride

Sequence of insulin (P01308 25-54 limits assumed, species assumed): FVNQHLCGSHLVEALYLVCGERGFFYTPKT
Sequence of insulin (P01308 90-110 limits assumed, species assumed): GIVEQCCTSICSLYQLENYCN

saturation concentration [1]	saturation concentration ([1]; aqueous solution of sodium sulfate (1 M))	preparation and stabilization of colloidal compositions of calcium fluoride [2]	Structure (SMILES)	stabilizer of the dissolved insulin (insulin)
0.4 mg/mL	–	–	COC[C@H]1O[C@@H]2O[C@@H]3[C@@H](OC)[C@@H](OC)[C@@H](O[C@@H]4[C@@H](OC)[C@@H](OC)[C@@H](O[C@@H]5[C@@H](OC)[C@@H](OC)[C@@H](O[C@@H]6[C@@H](OC)[C@@H](OC)[C@@H](O[C@@H]7[C@@H](OC)[C@@H](OC)[C@@H](O[C@@H]1[C@@H](OC)[C@H]2OC)O[C@@H]7COC)O[C@@H]6COC)O[C@@H]5COC)O[C@@H]4COC)O[C@@H]3COC [TRIMEA]	more effective stabilizer of the dissolved insulin than DIMEB or TRIMEB
–	3.4 mg/mL	effective	COC[C@H]1O[C@@H]2O[C@H]3[C@H](O)[C@@H](OC)[C@@H](O[C@H]4[C@H](O)[C@@H](OC)[C@@H](O[C@H]5[C@H](O)[C@@H](OC)[C@@H](O[C@H]6[C@H](O)[C@@H](OC)[C@@H](O[C@H]7[C@H](O)[C@@H](OC)[C@@H](O[C@H]8[C@H](O)[C@@H](OC)[C@@H](O[C@H]1[C@H](O)[C@H]2OC)O[C@@H]8COC)O[C@@H]7COC)O[C@@H]6COC)O[C@@H]5COC)O[C@@H]4COC)O[C@@H]3COC [DIMEB]	–
